Broadly, the Papp A→B is the apparent permeability from the apical to the basolateral side of a cell layer. The term pIC50 denotes −log10 of the IC50, conventionally taken in molar units. One may read the solubility as the concentration that dissolves in the medium under given conditions. Lower therefore signals a poorly soluble substance. One may read the microsomal CLint as the rate of metabolic loss divided by the concentration.

27 molecules from ChEMBL document CHEMBL1140015, “Pyrazolone methylamino piperidine derivatives as novel CCR3 antagonists” (Bioorg Med Chem Lett, 2007) can be followed below.

The nature of data set [1]: Permeability from apical to basolateral side of Caco-2 cell membrane. As to conditions: human. For orientation: Caco-2 cells form a polarised layer with tight junctions and transporters.
Data set [2] concerns the target T1, C-C chemokine receptor type 3 (Homo sapiens, UniProt P51677).
T1 sequence (P51677 whole entry): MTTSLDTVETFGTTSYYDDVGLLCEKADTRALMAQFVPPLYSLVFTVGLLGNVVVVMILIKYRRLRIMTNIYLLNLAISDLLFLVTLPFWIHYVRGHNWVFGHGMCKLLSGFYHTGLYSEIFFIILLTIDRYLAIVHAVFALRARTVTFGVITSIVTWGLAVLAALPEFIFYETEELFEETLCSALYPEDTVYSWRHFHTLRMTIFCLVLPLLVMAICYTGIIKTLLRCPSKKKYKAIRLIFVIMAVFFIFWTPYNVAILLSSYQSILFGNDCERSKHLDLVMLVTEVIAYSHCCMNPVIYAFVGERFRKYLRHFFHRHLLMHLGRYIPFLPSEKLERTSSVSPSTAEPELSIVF
Put plainly: Displacement of [125I]eotaxin from CCR3 receptor in human eosinophils. For orientation: Displacement assays read how much labelled ligand stays bound in the presence of the test substance.

Data set [3] can be described thus: Solubility in water at pH 7.4.
Data set [4] can be described thus: Metabolic stability in rat liver microsomes assessed as intrinsic clearance. The class given is ADME, Microsome. In general terms: Liver microsomes are a subcellular fraction often used to study metabolism.
The subject of data set [5] is Hepatocyte. Put plainly: Metabolic stability in rat hepatocytes after 2 hrs. It counts as ADME, cell-based.
The test system of data set [6] is Hepatocyte. Kind of data set: Metabolic stability in rat hepatocytes after 19 hrs. It counts as ADME, cell-based.
Data set [7] has as its target T1, C-C chemokine receptor type 3. Put plainly: Antagonist activity at human CCR3 receptor assessed as inhibition of calcium flux. The class given is functional.

pIC50: −log10 of the molar value. Converted amounts (≈) assume the structure as drawn.

Regarding `Cc1c(CN(CCc2ccc(S(N)(=O)=O)cc2)C2CCN(C(=O)c3c(F)cccc3F)CC2)c(=O)n(-c2ccc(F)cc2)n1C`, the Papp A→B in data set [1] was under 1 ×10⁻⁶ cm/s. The pIC50 in data set [2] was under 5.00. In data set [3], this molecule had a solubility of 400 µg/mL (≈ 623 µM). Besides, the microsomal CLint in data set [4] was under 50 µL/min/mg. Further, the Stability in the data set with Hepatocyte [5] was 43%; in the data set with Hepatocyte [6] it was 86%.

As for `Cc1c(CN(CCc2ccc(Cl)cc2)C2CCN(C(=O)c3c(F)cccc3F)CC2)c(=O)n(-c2ccccc2F)n1C`, the pIC50 in data set [2] was 7.40.

Turning to `Cc1c(CN(CCc2ccc(F)cc2)C2CCN(C(=O)c3c(F)cccc3F)CC2)c(=O)n(-c2ccc(F)cc2)n1C`, the pIC50 in data set [2] was 6.70. In data set [3], this molecule registered a solubility of 100 µg/mL (≈ 172 µM). In data set [4], the microsomal CLint stood at 303 µL/min/mg.

In data set [2], `Cc1c(CN(CCc2ccc(Cl)cc2)C2CCN(C(=O)c3c(F)cccc3F)CC2)c(=O)n(-c2ccc(C(=O)O)cc2)n1C` gave a pIC50 of 5.60.

The molecule `Cc1c(CN(CCc2ccc(Cl)cc2)C2CCN(C(=O)c3c(F)cccc3F)CC2)c(=O)n(-c2ccc(Cl)cc2)n1C` gave a pIC50 in data set [2] of 7.20.

Turning to `Cc1c(CN(CCc2ccc(Cl)cc2)C2CCN(C(=O)c3c(F)cccc3F)CC2)c(=O)n(-c2ccc(C#N)cc2)n1C`, in data set [2], the pIC50 was 6.80.

The molecule `Cc1c(CN(CCCCc2ccccc2)C2CCN(C(=O)c3cccc4ccccc34)CC2)c(=O)n(-c2ccccc2)n1C` showed a pIC50 in data set [2] of 6.80.

Regarding `CC(=O)Nc1ccc(-n2c(=O)c(CN(CCc3ccc(Cl)cc3)C3CCN(C(=O)c4c(F)cccc4F)CC3)c(C)n2C)cc1`, in data set [2], the pIC50 is 6.40.

In turn, `Cc1c(CN(CCc2ccc(Cl)cc2)C2CCN(C(=O)c3cccc[n+]3[O-])CC2)c(=O)n(-c2ccc(F)cc2)n1C` had a Papp A→B in data set [1] of 1.3 ×10⁻⁶ cm/s. In data set [2], the pIC50 is 6.70. For the same molecule, the solubility in data set [3] was over 2000 µg/mL. Further, in data set [4], the microsomal CLint was under 50 µL/min/mg. Further, the Stability is 15% in the data set with Hepatocyte [5] and 55% with Hepatocyte [6].

For `COc1ccc(-n2c(=O)c(CN(CCc3ccc(Cl)cc3)C3CCN(C(=O)c4c(F)cccc4F)CC3)c(C)n2C)cc1`, the pIC50 in data set [2] was 7.00.

In turn, `Cc1c(CN(CCc2cccnc2)C2CCN(C(=O)c3c(F)cccc3F)CC2)c(=O)n(-c2ccc(F)cc2)n1C` showed a pIC50 in data set [2] of 5.60. In addition, in data set [3], the solubility is over 2000 µg/mL. Besides, the microsomal CLint in data set [4] came to 113 µL/min/mg.

As to `Cc1c(CN(CCc2ccc(Cl)cc2)C2CCN(C(=O)c3c(F)cccc3F)CC2)c(=O)n(-c2ccc([N+](=O)[O-])cc2)n1C`, in data set [2], the pIC50 is 7.00.

In the case of `Cc1c(CN(CCc2ccc(Cl)cc2)C2CCN(C(=O)c3c(F)cccc3F)CC2)c(=O)n(-c2cccc(F)c2)n1C`, in data set [2], the pIC50 is 7.00.

`COc1ccncc1-n1c(=O)c(CN(CCc2ccc(Cl)cc2)C2CCN(C(=O)c3c(F)cccc3F)CC2)c(C)n1C` had a pIC50 in data set [2] of 6.60.

Regarding `Cc1c(CN(CCc2ccc(N)cc2)C2CCN(C(=O)c3c(F)cccc3F)CC2)c(=O)n(-c2ccc(F)cc2)n1C`, in data set [1], the Papp A→B is under 1 ×10⁻⁶ cm/s. The same molecule had a pIC50 in data set [2] of 5.60. Further, the concentration in solution in data set [3] (solubility) was 900 µg/mL (≈ 1560 µM). In addition, the microsomal CLint in data set [4] is under 50 µL/min/mg. Besides, the Stability in the data set with Hepatocyte [5] is listed as 23%; with Hepatocyte [6], 71%.

The molecule `Cc1c(CN(CCc2ccc(Cl)cc2)C2CCN(C(=O)c3c(F)cccc3F)CC2)c(=O)n(-c2ccc(O)cc2)n1C` gave a pIC50 in data set [2] of 7.00.

As for `Cc1c(CN(CCc2ccc([N+](=O)[O-])cc2)C2CCN(C(=O)c3c(F)cccc3F)CC2)c(=O)n(-c2ccc(F)cc2)n1C`, the pIC50 in data set [2] was 8.20. This molecule gave a solubility in data set [3] of 100 µg/mL (≈ 165 µM). The microsomal CLint in data set [4] came out at 235 µL/min/mg. Besides, the figures for the Stability in the data set on Hepatocyte [5] and in the data set on Hepatocyte [6] were 35% and 95%, respectively.

For the molecule `Cc1c(CN(CCc2ccc(Cl)cc2)C2CCN(C(=O)c3c(F)cccc3F)CC2)c(=O)n(-c2ccccc2)n1C`, the pIC50 in data set [2] was 7.49.

As for `Cc1c(CN(CCc2ccc([N+](=O)[O-])cc2)C2CCN(C(=O)c3ccccn3)CC2)c(=O)n(-c2ccc(F)cc2)n1C`, the Papp A→B in data set [1] came to 7.8 ×10⁻⁶ cm/s. In data set [2], this molecule showed a pIC50 of 7.92. Besides, the concentration in solution in data set [3] (solubility) was 1260 µg/mL (≈ 2200 µM). For the same molecule, the microsomal CLint in data set [4] stood at 62 µL/min/mg. The Stability in the data set with Hepatocyte [5] is reported as 29%; in the data set with Hepatocyte [6], 82%.

Regarding `Cc1ccc(C(=O)N2CCC(N(CCc3ccc([N+](=O)[O-])cc3)Cc3c(C)n(C)n(-c4ccc(F)cc4)c3=O)CC2)c(C)n1`, in data set [2], the pIC50 is 7.92. Moreover, the solubility in data set [3] is 1200 µg/mL (≈ 2000 µM). Moreover, the microsomal CLint in data set [4] came out at 79 µL/min/mg. In addition, the values for the Stability in the data set with Hepatocyte [5] and in the data set with Hepatocyte [6] were 38% and 94%, respectively.

As to `Cc1c(CN(CCc2ccc(Cl)cc2)C2CCN(C(=O)c3c(F)cccc3F)CC2)c(=O)n(C2CCCCC2)n1C`, the pIC50 in data set [2] is 7.00.

Molecule `Cc1c(CN(CCc2ccc(Cl)cc2)C2CCN(C(=O)c3c(F)cccc3F)CC2)c(=O)n(-c2cnccc2Cl)n1C` showed a pIC50 in data set [2] of 7.00.

The molecule `Cc1c(CN(CCc2ccc(Cl)cc2)C2CCN(C(=O)c3c(F)cccc3F)CC2)c(=O)n(-c2ccc(N)cc2)n1C` showed a pIC50 in data set [2] of 7.10.

Turning to `Cc1c(CN(CCc2ccc(Cl)cc2)C2CCN(C(=O)c3c(F)cccc3F)CC2)c(=O)n(-c2ccc(N(C)C)cc2)n1C`, the pIC50 in data set [2] is 7.00.

The molecule `Cc1c(CN(CCc2ccc(Cl)cc2)C2CCN(C(=O)c3c(F)cccc3F)CC2)c(=O)n(-c2ccc(F)cc2)n1C` showed a Papp A→B in data set [1] of 8.1 ×10⁻⁶ cm/s. The pIC50 in data set [2] is 7.70; in data set [7], 7.80. For the same molecule, the solubility in data set [3] is 1 µg/mL (≈ 1.67 µM). In data set [4], the microsomal CLint was 472 µL/min/mg. Moreover, the values for the Stability with Hepatocyte [5] and with Hepatocyte [6] were 52% and 95%, respectively.

Molecule `Cc1c(CN(CCc2ccccn2)C2CCN(C(=O)c3c(F)cccc3F)CC2)c(=O)n(-c2ccc(F)cc2)n1C` gave a pIC50 in data set [2] of 6.00. Further, the microsomal CLint in data set [4] was 82 µL/min/mg. The figures for the Stability in the data set with Hepatocyte [5] and with Hepatocyte [6] were 35% and 78%, respectively.

As for `Cc1c(CN(CCc2ccc(Cl)cc2)C2CCN(C(=O)c3c(F)cccc3F)CC2)c(=O)n(-c2ccccn2)n1C`, the pIC50 in data set [2] is 7.60.
